According to paper PMC5512571 (Cancer cell, 2017):

Tests used:
Test in all cases: in vitro kinase panel profiling
Format in all cases: biochemical
[1] = target: T1, TNK1 (Homo sapiens, UniProt Q13470)
T1 sequence (Q13470 1-666): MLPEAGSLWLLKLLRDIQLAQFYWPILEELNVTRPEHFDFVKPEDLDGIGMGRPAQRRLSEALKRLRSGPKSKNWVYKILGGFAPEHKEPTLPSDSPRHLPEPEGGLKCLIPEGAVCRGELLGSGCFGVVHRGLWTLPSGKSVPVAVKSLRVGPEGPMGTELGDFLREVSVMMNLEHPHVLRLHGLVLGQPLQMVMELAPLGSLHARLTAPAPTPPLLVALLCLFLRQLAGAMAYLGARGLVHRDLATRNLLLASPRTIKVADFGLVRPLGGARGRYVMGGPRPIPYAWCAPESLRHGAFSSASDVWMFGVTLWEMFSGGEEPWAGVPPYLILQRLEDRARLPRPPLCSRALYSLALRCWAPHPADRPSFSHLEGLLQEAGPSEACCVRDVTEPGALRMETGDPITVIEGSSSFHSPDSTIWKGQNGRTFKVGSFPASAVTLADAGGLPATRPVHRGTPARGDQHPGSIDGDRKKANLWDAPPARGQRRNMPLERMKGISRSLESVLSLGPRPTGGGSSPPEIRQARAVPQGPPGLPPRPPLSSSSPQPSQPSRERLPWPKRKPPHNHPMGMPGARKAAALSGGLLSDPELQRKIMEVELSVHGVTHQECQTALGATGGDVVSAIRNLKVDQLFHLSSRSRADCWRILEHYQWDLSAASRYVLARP

[2] = target: T2, NUAK1 (Homo sapiens, UniProt O60285)
T2 sequence (O60285 1-661): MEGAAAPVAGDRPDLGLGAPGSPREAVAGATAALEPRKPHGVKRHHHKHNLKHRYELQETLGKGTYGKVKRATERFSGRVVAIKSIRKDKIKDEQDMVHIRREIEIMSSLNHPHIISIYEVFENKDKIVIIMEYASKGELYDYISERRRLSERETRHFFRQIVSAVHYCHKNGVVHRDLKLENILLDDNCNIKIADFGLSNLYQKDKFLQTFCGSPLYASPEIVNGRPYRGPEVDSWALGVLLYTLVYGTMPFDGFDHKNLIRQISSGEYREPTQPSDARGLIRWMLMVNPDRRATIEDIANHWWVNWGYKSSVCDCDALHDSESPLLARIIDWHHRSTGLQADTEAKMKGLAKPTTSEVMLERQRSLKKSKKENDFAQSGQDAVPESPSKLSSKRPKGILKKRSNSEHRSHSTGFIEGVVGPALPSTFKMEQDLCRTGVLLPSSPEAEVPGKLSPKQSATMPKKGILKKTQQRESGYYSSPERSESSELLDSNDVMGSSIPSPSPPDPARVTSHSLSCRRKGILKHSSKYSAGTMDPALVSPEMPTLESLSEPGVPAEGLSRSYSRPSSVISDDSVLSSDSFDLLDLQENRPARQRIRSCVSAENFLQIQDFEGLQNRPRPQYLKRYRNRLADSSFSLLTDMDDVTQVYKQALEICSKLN

[3] = target: JAK1 (Homo sapiens, UniProt P23458)
Chain of JAK1 (P23458 whole entry): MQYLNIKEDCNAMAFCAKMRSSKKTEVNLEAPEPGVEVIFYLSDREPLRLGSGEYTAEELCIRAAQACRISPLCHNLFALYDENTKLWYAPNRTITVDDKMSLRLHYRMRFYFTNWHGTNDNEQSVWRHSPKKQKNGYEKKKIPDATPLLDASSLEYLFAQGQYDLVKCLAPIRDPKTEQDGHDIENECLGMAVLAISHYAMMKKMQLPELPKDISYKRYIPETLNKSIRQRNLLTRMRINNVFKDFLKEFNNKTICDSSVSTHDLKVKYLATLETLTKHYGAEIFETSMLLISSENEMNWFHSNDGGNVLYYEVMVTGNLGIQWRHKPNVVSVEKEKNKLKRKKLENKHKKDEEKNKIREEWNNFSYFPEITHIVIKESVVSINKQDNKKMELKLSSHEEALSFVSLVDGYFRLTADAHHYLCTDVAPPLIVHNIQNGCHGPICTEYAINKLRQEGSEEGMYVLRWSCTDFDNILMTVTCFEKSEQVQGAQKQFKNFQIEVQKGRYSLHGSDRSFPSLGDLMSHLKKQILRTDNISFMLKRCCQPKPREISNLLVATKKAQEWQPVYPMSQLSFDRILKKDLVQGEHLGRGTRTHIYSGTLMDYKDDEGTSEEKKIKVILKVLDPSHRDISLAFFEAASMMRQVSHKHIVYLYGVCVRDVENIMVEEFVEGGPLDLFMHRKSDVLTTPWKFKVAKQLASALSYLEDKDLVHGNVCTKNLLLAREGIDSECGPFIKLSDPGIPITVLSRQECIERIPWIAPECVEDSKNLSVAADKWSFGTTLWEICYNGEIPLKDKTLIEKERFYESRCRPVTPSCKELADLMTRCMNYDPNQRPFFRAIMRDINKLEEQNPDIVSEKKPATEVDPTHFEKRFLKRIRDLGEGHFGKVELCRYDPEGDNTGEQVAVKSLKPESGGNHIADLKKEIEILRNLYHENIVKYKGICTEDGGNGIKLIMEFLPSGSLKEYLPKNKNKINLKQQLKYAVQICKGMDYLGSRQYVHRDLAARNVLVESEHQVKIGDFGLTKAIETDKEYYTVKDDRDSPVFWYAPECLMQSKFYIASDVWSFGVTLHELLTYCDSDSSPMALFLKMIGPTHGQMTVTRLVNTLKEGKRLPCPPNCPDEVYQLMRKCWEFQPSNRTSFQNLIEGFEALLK

[4] = target: LRRK2 (Homo sapiens, UniProt Q5S007)
Chain of LRRK2 (Q5S007 whole entry): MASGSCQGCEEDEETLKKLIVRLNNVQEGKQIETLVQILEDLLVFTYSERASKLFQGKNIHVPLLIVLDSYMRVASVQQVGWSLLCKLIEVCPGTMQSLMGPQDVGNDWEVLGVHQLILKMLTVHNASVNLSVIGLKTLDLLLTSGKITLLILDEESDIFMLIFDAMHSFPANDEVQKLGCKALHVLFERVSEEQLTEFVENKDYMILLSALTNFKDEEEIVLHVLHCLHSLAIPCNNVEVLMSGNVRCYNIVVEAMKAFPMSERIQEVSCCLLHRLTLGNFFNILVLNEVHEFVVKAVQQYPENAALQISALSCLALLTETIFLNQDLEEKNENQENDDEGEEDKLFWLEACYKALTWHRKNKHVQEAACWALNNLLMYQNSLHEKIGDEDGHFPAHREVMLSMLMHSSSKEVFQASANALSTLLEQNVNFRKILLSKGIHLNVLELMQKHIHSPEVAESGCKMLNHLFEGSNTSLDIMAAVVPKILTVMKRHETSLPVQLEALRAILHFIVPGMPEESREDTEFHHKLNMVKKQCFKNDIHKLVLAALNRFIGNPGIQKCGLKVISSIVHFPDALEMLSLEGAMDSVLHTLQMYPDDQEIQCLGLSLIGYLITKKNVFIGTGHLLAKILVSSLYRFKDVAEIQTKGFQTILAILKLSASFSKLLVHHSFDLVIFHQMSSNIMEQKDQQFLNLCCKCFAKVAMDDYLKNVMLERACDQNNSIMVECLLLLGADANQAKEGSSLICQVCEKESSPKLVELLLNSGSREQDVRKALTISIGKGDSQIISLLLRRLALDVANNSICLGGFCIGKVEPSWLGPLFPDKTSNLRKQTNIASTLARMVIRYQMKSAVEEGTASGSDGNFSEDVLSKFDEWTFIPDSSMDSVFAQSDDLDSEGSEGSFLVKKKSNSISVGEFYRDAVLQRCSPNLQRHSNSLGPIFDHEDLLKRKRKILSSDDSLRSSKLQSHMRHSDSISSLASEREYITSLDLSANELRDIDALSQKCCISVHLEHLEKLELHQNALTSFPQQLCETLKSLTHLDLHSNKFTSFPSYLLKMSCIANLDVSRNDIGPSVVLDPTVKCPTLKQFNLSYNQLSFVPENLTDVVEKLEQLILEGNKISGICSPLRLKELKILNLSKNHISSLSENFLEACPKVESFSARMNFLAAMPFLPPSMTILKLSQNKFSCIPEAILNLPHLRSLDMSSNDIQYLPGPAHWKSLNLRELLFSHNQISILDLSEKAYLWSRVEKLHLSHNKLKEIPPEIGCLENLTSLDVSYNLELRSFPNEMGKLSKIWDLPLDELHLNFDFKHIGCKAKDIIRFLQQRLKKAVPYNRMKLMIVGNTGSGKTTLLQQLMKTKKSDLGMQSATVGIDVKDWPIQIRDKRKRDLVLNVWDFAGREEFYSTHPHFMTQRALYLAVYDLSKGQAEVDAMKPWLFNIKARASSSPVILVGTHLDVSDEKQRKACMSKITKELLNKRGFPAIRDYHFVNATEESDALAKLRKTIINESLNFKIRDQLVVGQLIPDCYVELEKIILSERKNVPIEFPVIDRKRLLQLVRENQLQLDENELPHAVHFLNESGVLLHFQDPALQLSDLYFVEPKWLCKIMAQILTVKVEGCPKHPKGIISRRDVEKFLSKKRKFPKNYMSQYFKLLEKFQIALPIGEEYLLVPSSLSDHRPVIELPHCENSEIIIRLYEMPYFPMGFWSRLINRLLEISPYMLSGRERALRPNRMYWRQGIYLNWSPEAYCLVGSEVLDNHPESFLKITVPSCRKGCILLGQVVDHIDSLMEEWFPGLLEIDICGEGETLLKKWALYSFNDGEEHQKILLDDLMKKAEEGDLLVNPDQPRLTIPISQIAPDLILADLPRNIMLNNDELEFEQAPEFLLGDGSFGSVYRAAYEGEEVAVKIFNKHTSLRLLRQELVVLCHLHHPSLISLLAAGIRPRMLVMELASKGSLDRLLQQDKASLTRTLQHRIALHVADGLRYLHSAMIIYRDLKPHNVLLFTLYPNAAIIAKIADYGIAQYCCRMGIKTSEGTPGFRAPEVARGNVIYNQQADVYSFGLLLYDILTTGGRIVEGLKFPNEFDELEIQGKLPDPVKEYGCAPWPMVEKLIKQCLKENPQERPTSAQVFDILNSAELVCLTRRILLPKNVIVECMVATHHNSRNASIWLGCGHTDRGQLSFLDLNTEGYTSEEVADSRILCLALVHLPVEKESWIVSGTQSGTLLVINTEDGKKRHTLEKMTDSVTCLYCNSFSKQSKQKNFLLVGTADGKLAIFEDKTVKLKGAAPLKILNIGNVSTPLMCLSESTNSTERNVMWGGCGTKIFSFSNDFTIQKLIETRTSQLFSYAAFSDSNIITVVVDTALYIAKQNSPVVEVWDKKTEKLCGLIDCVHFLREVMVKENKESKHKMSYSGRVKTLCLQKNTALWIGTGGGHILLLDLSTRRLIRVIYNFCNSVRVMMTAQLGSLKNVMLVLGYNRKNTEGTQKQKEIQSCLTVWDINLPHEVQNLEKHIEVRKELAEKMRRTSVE

[5] = target: FLT3 (Homo sapiens, UniProt P36888)
[6] = target: T3, NUAK2 (Homo sapiens, UniProt Q9H093)
T3 sequence (Q9H093 1-628): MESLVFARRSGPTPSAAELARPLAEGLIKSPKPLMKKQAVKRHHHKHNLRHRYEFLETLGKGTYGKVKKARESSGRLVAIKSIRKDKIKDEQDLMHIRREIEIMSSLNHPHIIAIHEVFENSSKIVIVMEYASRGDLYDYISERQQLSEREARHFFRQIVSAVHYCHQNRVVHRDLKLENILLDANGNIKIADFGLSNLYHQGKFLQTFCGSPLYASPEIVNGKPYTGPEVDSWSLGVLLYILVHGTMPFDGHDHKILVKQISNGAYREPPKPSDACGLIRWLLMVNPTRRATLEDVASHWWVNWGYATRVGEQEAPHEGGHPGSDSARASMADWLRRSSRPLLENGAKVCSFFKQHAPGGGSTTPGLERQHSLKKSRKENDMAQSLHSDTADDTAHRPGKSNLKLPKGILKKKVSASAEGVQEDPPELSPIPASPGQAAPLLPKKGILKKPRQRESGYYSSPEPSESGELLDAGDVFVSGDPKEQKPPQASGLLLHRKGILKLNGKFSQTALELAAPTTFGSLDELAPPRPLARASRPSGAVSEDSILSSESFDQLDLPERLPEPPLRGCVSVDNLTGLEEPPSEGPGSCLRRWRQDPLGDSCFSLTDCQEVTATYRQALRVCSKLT

[7] = target: T4, JAK3 (Homo sapiens, UniProt P52333)
T4 sequence (P52333 1-1124): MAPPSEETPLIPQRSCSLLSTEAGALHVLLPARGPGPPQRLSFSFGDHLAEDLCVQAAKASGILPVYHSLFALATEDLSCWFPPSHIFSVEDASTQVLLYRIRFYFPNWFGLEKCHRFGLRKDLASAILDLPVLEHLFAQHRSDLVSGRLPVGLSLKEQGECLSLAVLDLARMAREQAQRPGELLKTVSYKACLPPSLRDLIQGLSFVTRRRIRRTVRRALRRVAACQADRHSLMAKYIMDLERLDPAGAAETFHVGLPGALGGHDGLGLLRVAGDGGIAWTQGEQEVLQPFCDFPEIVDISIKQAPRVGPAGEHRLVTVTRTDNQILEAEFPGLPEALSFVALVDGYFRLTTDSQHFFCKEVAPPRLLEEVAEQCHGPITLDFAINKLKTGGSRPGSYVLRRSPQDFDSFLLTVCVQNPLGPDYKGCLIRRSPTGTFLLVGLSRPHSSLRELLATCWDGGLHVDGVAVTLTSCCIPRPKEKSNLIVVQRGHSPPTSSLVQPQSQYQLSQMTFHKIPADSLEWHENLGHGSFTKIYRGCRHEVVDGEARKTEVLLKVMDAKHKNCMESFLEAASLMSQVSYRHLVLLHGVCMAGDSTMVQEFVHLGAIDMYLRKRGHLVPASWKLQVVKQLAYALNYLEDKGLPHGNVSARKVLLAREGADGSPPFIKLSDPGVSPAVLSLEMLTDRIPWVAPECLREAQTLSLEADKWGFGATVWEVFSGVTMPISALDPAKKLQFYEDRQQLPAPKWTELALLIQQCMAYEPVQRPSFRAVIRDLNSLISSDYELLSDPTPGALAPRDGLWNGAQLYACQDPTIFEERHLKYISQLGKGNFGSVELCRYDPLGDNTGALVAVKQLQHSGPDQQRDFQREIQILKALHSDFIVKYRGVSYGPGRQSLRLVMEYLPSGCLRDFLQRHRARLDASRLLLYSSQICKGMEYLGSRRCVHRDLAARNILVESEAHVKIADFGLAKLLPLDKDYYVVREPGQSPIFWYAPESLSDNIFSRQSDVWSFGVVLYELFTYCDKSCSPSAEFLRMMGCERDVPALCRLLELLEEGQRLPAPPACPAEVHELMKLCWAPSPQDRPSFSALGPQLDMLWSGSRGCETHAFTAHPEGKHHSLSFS

[8] = target: JAK2 (Homo sapiens, UniProt O60674)
Chain of JAK2 (O60674 whole entry): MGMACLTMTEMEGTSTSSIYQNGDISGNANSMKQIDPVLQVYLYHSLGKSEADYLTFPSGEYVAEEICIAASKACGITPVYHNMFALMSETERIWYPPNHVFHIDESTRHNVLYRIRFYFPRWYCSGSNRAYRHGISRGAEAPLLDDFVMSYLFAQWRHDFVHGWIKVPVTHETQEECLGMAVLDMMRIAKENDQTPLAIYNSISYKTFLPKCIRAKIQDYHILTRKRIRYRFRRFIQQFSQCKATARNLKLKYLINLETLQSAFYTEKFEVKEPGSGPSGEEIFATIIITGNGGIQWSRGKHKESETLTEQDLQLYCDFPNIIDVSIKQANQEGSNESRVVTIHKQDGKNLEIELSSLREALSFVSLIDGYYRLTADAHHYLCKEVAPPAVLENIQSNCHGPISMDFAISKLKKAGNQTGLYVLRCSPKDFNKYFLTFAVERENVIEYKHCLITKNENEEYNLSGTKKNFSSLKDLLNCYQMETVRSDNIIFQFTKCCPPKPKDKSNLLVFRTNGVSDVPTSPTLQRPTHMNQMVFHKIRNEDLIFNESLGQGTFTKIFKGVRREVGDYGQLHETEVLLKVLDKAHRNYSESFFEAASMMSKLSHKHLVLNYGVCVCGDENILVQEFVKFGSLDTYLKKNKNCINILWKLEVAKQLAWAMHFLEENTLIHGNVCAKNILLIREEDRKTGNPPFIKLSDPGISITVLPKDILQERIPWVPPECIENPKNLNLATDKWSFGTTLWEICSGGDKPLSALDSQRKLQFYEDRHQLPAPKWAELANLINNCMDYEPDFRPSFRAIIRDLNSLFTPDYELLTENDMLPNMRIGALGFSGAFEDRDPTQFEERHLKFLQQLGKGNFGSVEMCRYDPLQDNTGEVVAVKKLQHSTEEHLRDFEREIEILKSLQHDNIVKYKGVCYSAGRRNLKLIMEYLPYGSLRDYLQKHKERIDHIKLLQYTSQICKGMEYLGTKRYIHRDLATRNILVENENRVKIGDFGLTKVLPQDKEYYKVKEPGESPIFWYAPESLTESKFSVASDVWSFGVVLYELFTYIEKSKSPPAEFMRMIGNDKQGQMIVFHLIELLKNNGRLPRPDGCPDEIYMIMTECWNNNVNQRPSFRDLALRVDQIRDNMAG

[9] = target: TYK2 (Homo sapiens, UniProt P29597)

% inhibition at 250 nM [1]: > 90
% inhibition at 250 nM [2]: > 90
% inhibition at 250 nM [3]: > 90
% inhibition at 250 nM [4]: > 90
% inhibition at 250 nM [5]: > 90
% inhibition at 250 nM [6]: > 90
% inhibition at 250 nM [7]: > 90
% inhibition at 250 nM [8]: > 90
% inhibition at 250 nM [9]: > 90
SMILES: CN1CCN(c2ccc(Nc3ncc(Cl)c(NC[C@H]4CCCO4)n3)cc2)CC1 [(R)-9bMS]
